Test results from paper PMC8518391, “Synthesis and Biological Evaluation of Dantrolene‐Like Hydrazide and Hydrazone Analogues as Multitarget Agents for Neurodegenerative Diseases” (Chemmedchem, 2021).

Assays:
[1] = molecular target: T1, hMAO B (Homo sapiens, UniProt P27338); design: method as in PMID 31775359; conditions: cited from earlier work
T1 construct: purchased Sigma Aldrich
T1 sequence (P27338 1-520): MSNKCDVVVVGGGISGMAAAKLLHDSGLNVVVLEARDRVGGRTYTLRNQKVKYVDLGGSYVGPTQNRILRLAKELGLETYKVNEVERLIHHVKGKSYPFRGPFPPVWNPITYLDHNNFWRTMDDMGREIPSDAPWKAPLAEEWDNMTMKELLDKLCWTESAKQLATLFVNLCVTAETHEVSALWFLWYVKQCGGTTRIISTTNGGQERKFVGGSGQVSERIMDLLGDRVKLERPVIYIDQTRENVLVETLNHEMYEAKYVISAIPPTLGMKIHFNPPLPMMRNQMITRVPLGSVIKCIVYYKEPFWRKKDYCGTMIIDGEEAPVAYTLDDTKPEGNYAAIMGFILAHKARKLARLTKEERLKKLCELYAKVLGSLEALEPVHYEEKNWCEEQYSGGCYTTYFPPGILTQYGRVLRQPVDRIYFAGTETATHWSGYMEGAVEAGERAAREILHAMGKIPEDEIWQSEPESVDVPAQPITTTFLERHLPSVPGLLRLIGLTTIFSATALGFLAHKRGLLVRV

[2] = RP-HPLC lipophilicity index log k’; type: physicochemical; conditions: MeOH/phosphate buffer pH 7.4; methanol/PBS 60:40 v/v
Text: To investigate a possible correlation between MAO inhibitory potency and lipophilicity,[7] we calculated log P with three different programs (ChemDraw 15.0; ALOG PS 2.1; ChemSketch 2017, see Table S1 in Supporting Information) and compared the calculated values with experimental lipophilicity indexes as assessed by reversed‐phase (RP) HPLC in isocratic conditions for the majority of compounds. The log of capacity factors (log k’) measured by RP‐HPLC using a mixture of methanol/PBS (60 : 40, v/v) as the mobile phase are reported in Tables 1 and 2, along with Clog P values calculated with ChemDraw. These calculated lipophilicity descriptors correlated with the experimental log k’ values (n=13, r ^2=0.901) better than the other log Ps calculated by ALOG PS and ChemSketch computational tools (r ^2 equal 0.705 and 0.568, respectively). As shown by the scatter plots in Figure 4 and Figure S1 in Supporting Information, there is no evident correlation trend between MAO A/B inhibition data and lipophilicity calculated by the expert system implemented in ChemDraw for compounds achieving finite IC50 values.
Log k’ values (k’=(tr‐t0)/t0) and purity determinations were carried out using a Phenomenex Gemini C18 4.6×150 mm, with 3 μm size particles, built on a Waters double pump HPLC system in isocratic conditions. Injection volumes were 10 μL, flow rate was 0.5 mL/min, and detection was performed with UV (λ=254 and 370 nm). Samples were prepared by dissolving 0.1 mg/mL of the solute in 10 % v/v DMSO and 90 % v/v methanol. Retention times (tr) were measured at least from three separate injections, and dead time (t0) was the retention time of deuterated methanol. The mobile phase was filtered through a Supelco Nylon‐66 membrane 0.45 μm (Merck Life Science Srl, Milan, Italy) before use. For each reference compound, the average tr of three consecutive injections of 10 μL of sample was used to calculate the log k’ values. The eluent consisted of five different mixtures of methanol and PBS buffer 10 mM at pH 7.4, with methanol/buffer ratios ranging from 80 : 20 to 60 : 40 v/v.

[3] = test system: SH-SY5Y cells; assay: DCF-DA assay of ROS production induced by dopamine in SH-SY5Y cells; type: cell-based, human; conditions: 10 nM dopamine + 10 nM compound
Procedure: The immortalized neuroblastoma cells are a widely used model for neuroprotection assays, while dopamine at a concentration of 10 nM acts as an inducer of oxidative stress,[8, 9] being metabolized by MAOs to form hydrogen peroxide. Once hydrolyzed and oxidized, DCF acts as the fluorescing probe of the oxidative stress (OS) state of cells. In the presence of an antioxidant, or even of a MAO inhibitor, ROS burden is lowered and DCF fluorescence decreased. […] Its activity is superimposable to that of phenelzine, a nonselective MAO inhibitor used as a positive control in this test.[10] The same experiment performed on dantrolene in our previous work gave similar results.[1]
Reagents for cell cultures were purchased from Life Technologies (ThermoFisher Scientific, Waltham, MA, USA) unless otherwise stated. […]
ROS production in SH‐SY5Y cell line was detected using Cellular Reactive Oxygen Species Detection Assay Kit ab186027 (Abcam, Cambridge, UK), as previously described.[1] […] After incubation and washing, DCF‐DA was added, the plate was incubated, washed again with PBS, and the fluorescence read every 15 min in a 60 min time interval at 535 nm (excitation at 485 nm) using the Tecan Infinite M1000 Pro plate reader.

[4] = molecular target: T1, hMAO B; assay: biochemical; type: biochemical
[5] = molecular target: T2, hMAO A (Homo sapiens, UniProt P21397); assay: biochemical
T2 construct: purchased Sigma Aldrich
T2 sequence (P21397 1-527): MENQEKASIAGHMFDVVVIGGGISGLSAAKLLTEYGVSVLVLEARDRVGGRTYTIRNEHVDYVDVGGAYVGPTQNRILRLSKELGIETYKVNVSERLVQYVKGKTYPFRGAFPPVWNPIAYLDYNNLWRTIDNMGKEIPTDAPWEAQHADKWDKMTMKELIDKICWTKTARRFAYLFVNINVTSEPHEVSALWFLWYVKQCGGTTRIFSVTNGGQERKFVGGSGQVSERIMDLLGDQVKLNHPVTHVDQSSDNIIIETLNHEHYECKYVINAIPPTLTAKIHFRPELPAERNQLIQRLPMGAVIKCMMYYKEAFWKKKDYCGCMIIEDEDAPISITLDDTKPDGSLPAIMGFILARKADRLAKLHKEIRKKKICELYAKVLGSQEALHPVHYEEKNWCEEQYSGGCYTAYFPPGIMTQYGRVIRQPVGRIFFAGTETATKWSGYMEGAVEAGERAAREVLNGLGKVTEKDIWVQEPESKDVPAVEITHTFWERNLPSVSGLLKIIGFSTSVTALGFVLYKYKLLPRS
Text: (§1) Readings were made with Infinite M1000 Pro plate reader (Tecan, Cernusco s.N., Italy) and statistical regressions with Prism software (GraphPad Prism version 5.00 for Windows, GraphPad Software, San Diego, CA, USA).

[6] = molecular target: T3, hAChE (Homo sapiens, UniProt P22303); assay: biochemical; conditions: read-out: % inhibition at 10 μM hAChE
T3 construct: purchased Sigma Aldrich
T3 sequence (P22303 32-614): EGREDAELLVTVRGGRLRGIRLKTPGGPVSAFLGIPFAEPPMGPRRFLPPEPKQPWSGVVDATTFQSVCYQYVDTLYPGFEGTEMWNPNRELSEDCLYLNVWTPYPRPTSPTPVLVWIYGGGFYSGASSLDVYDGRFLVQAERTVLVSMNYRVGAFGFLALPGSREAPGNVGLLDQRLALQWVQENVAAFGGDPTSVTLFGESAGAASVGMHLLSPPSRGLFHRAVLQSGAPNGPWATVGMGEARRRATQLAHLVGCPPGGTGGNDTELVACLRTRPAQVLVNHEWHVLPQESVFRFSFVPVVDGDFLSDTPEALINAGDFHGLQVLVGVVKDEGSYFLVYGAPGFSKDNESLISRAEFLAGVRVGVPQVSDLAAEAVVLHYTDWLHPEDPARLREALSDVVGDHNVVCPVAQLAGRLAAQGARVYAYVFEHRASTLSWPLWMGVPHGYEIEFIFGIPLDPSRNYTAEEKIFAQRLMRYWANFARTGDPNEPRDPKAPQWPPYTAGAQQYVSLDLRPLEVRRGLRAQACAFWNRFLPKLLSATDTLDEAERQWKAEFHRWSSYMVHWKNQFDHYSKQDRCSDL
Text: as §1

[7] = Hydrolytic stability in buffered solution (PBS pH 7.4, 37 °C); type: physicochemical; conditions: 20 μM in 10 mM PBS pH 7.4, 37 °C, 6 h incubation
Procedure: The hydrolytic stability of some representative imino/hydrazone/hydrazide derivatives was determined in buffered aqueous media. […]. […]. The hydrolytic degradation of 9 in its starting reagents was confirmed by the comparison of the chromatograms of 9 and 2‐chloro‐4‐hydroxyaniline, obtained in the same chromatographic conditions (Figure 6B).
Stability studies in buffered solution were performed following an already described procedure,[23] on a Phenomenex C18 column (150×4.6 mm i.d., 3 μm particle size; Phenomenex, Castel Maggiore, Italy) using a mobile phase consisting of a mixture of methanol‐water (75 : 25 v/v, with aqueous formic acid 0.1 %). The used flow rate was 0.500 mL/min while the injection volume was 20 μL. Wavelength of UV‐Vis detector was adjusted at 254 nm. The chemical stability was evaluated in a phosphate buffer solution pH 7.4 (10 mM HPO4 ^2−/H2PO4 ^−; 100 mM NaCl) at 37 °C. Five different concentrations from 0.5 μM to 20 μM were studied in a 2 h time range (data not shown). Each concentration (0.5, 1, 5, 10 and 20 μM) was tested in triplicate starting from 3 different stocks solution (1 mM) prepared separately. The time range was extended to 6 h only for the samples at 20 μM concentration (Figure 6a).

SMILES	Ki human MAO B [1]	log k’ (logarithm of capacity factor, RP-HPLC) [2]	reduction of ROS oxidation of DCF [3]	IC50 [4] [nM]	mechanism of hMAO B inhibition ([4]; Michaelis-Menten / Lineweaver-Burk)	selectivity for MAO B over MAO A ([4]; from IC50 values) [fold]	Ki ([4]; inhibition kinetics without preincubation, kynuramine substrate) [nM]	IC50 [5] [nM]	inhibition at 10 µM [6] [%]	degradation percentage [7] [%]
O=C1CN(/N=C/c2ccc(-c3ccc([N+](=O)[O-])cc3)o2)C(O)=N1 [DAN, Dantrolene]	low micromolar range	0.115								
N#Cc1ccc(-c2ccc(/C=N/c3ccc(O)cc3Cl)o2)cc1 [Compound 9]		0.782	effective in reducing ROS oxidation of DCF	680 ± 50	competitive	5	500 ± 60	3460 ± 250	30	76
